Source: article PMC6290023 (Scientific Reports, 2018)
Peptide text beside a SMILES is read from it.

Key:
LPS-stimulated MG6 cells [1] = experiment: Anti-inflammatory effect in LPS-stimulated MG6 cells (TNF-α / IL-6 ELISA); type: cell-based, mouse
Method: MG6 cells were obtained from RIKEN BRC (Tsukuba, Japan)[25],[26]. The MG6 cells were maintained in DMEM (Nakarai, Kyoto, Japan) supplemented with 10% FBS (Thermo Fisher Scientific, Waltham, MA, USA), 10 μg/ml insulin (Sigma-Aldrich, St. Louis, MO, USA) and 100 μM 2-mercaptoethanol (Sigma-Aldrich). These cells (1 × 10^5 cells) were plated in 96-well plastic culture dishes. After overnight incubation, the medium was replaced with DMEM supplemented with 4% FBS. LPS (Escherichia coli 0111: B4; Sigma-Aldrich, St. Louis, MO, USA) and MHP1 or modified MHP1 was added to the medium, which was then harvested at 24 h after stimulation. In the experiment checking the stability at 26 or 37 °C, MHP1-Ac or MHP1-AcN was incubated at 26 or 37 °C for 24 h before adding to the medium.
The concentrations of TNF-α and IL-6 were measured using commercially available ELISA kits: TNF-α, Quantikine Mouse TNF-α ELISA Kit (R&D systems); IL-6, Quantikine Mouse IL-6 ELISA Kit (R&D systems).

LPS-stimulated MG6 cells [2] = experiment: LDH assay in LPS-stimulated MG6 cells; type: cell-based, mouse
[3] = tested on: mouse osteoclast precursor cells; experiment: Osteoclast differentiation of mouse osteoclast precursor cells (TRAP-positive large cells); type: cell-based; conditions: M-CSF 50 ng/ml, 5 days
Method: Osteoclast differentiation was examined using a mouse osteoclast culture system obtained from Cosmo Bio Co. Ltd. (Tokyo, Japan). Mouse osteoclast precursor cells seeded in a 24-well plate were incubated with macrophage colony stimulating factor (50 ng/ml) and RANKL (50 ng/ml) with or without MHP1-AcN. After five days, osteoclast precursors stimulated with RANKL had fused with each other and became multinucleated TRAP-positive cells. Cells with more than ten nuclei were classified as large osteoclasts. The number of these cells in each group was counted with a phase contrast microscope (BZ-9000, Keyence, Tokyo) using BZII analyzer software (v1.42; Keyence, Tokyo).

tMCAo model in mice = experiment: Transient middle cerebral artery occlusion (tMCAo) model; type: in vivo; conditions: mouse tMCAo; for reduction of infarct volume: 150 μl i.v. 6 h after MCAo then s.c. Alzet pump 24 h; for neurological deficits (neurological severity score): start 6 h after MCAo
Method: The plan of animal studies was approved by the Animal Committee of Graduate School of Medicine, Osaka University (25-029-012), and all animal experiments were carried out in accordance with the guidelines of Osaka University. All surgeries were performed using isoflurane and all efforts were made to minimize suffering. The C57Bl6/J mice were obtained from CLEA Japan, Inc. The transient middle cerebral artery occlusion procedure was described previously (1). Briefly, the mice were anesthetized with isoflurane (1.4%). The cerebral blood flow (CBF) was measured using a laser Doppler flowmeter (Unique Acquisition software; Unique Medical, Osaka, Japan). A 6.0 monofilament surgical suture was advanced into the internal carotid artery to obstruct the origin of the middle cerebral artery. The filament was left in place for 40 min before withdrawal. For all the mice, the rectal temperature was maintained at 37.0 ± 0.5 °C during surgery and recovery period (until the animals regained consciousness). […] MHP1 (4 mg/ml in water) was diluted to 0.5, 1, or 2 mg/ml in 0.45% saline, and 150 μl of the MHP1 was injected intravenously at 6 or 8 h after the MCAo. MHP1 was subsequently injected subcutaneously for 24 hrs using Alzet mini-osmotic pump (2001D, DURECT Corporation, Cupertino, USA). The vehicle control for MHP1, 0.45% saline, was injected similarly.
(§1) The ischemic damage was evaluated at 48 h after MCAo in sections stained with cresyl violet. Coronal sections (12 μm thickness) were made at −1.4, −0.7, 0, 0.7 and 1.4 mm from the bregma, mounted on the stereomicroscope and photographed. The volume of the infarct was calculated by the sum of each area of all sections corrected by cerebral edema and multiplied by the thickness of the slices. In the experiment of tPA-induced hemorrhage, PE10-catheter was placed in the right internal jugular vein at 6 h after ischemia. The nylon suture was then removed and 10% of the MHP-AcN mixture (150 µg/mice) and tPA (10 mg/kg) were injected followed by continuous injection of residual mixture of MHP1-AcN and tPA using a syringe pump (UNIVENTOR 400 ANAESTHESIA UNIT, ZTN, MALTA). In the experiment of FeCl3 -induced thrombosis model in CCA, a piece of filter paper soaked in 7.5% FeCl3 was placed on the right CCA for 1 min and it was rinsed with saline. Blood flow was recorded by using a laser speckle blood flow imager (OMEGAZONE OZ-2, OMEGAWAVE, INC., Tokyo, Japan). tPA (10 mg/kg) or mixture of MHP1-AcN (150 μg/mice) and tPA was started to be administered at 30 min after CCA occlusion.

[4] = tested on: FeCl3-induced thrombosis model in CCA; experiment: FeCl3-induced thrombosis model in CCA, thrombolysis with tPA; type: in vivo; conditions: mouse, MHP1-AcN 150 μg/mice combined with tPA 10 mg/kg, 30 min after CCA occlusion
Method: as §1

[5] = LPS-stimulated MG6 cells, medium harvested 24 h after stimulation, ELISA

expression of TNF-α with peptide pre-incubated at 4, 37 or 26 °C (retention of anti-inflammatory effect) (LPS-stimulated MG6 cells [1]; peptide incubated at 4, 37 or 26 °C for 24 h, then added to LPS-stimulated MG6 cells): no significant differences
Structure (SMILES): CC[C@H](C)[C@H](NC(=O)[C@H](CO)NC(=O)[C@@H](NC(=O)[C@H](CCCCN)NC(=O)[C@@H](NC(=O)[C@@H](NC(=O)[C@H](Cc1ccc(O)cc1)NC(=O)[C@@H](NC(=O)[C@H](CCSC)NC(=O)[C@H](CC(C)C)NC(C)=O)C(C)C)C(C)C)C(C)C)[C@@H](C)O)C(=O)N[C@@H](CCCCN)C(=O)N[C@H](C(=O)N1CCC[C@H]1C(=O)N[C@@H](CO)C(=O)N[C@@H](CO)C(=O)N[C@@H](Cc1c[nH]cn1)C(=O)N[C@@H](CC(N)=O)C(=O)N[C@@H](CC(C)C)C(=O)N[C@@H](CCSC)C(=O)N[C@@H](CCCCN)C(=O)NCC(=O)NCC(=O)N[C@@H](CO)C(=O)N[C@H](C(=O)N[C@@H](CCCCN)C(=O)N[C@@H](CC(N)=O)C(=O)N[C@@H](Cc1c[nH]c2ccccc12)C(=O)N[C@@H](CO)C(=O)NCC(=O)N[C@@H](CC(N)=O)C(N)=O)[C@@H](C)O)[C@@H](C)CC [MHP1-AcN] (Ac-LMVYVVKTSIKIPSSHNLMKGGSTKNWSGN-NH2)
anti-inflammatory effects at 1 µg/ml (LPS-stimulated MG6 cells [1]; LPS-stimulated MG6 cells, 1 µg/ml peptide): anti-inflammatory effects were seen
dose dependency of anti-inflammatory effects (LPS-stimulated MG6 cells [1]; LPS-stimulated MG6 cells, 24 h, ELISA): Dose-dependent anti-inflammatory effects were observed
inhibition of IL-6 expression compared with MHP1 (LPS-stimulated MG6 cells [1]; [5]): more effective than MHP1
inhibition of TNF-α expression compared with MHP1 (LPS-stimulated MG6 cells [1]; [5]): more effective than MHP1
cytotoxicity (LDH assay) (LPS-stimulated MG6 cells [2]): did not increase cytotoxicity
effect on RANKL-induced osteoclast differentiation ([3]; RANKL 50 ng/ml): inhibited RANKL-induced osteoclast differentiation
effect on osteoclast differentiation (peptide alone) ([3]; without RANKL): did not affect the osteoclast differentiation
reduction of infarct volume (tMCAo model in mice; 0.5 mg/ml, infarct at 48 h): effective
neurological deficits (neurological severity score) (tMCAo model in mice; 0.5 mg/ml): significantly improved
reduction of infarct volume (tMCAo model in mice; 1 mg/ml, infarct at 48 h): the most effective dose
neurological deficits (neurological severity score) (tMCAo model in mice; 1 mg/ml): significantly improved
neurological deficit (tMCAo model in mice; 1 mg/ml, start 8 h after ischemia, at 48 h after ischemia): significantly improved
infarct volume compared to saline-treated mice (tMCAo model in mice; 1 mg/ml, start 8 h after ischemia, infarct at 48 h): tendency of reduction
reduction of infarct volume (tMCAo model in mice; 2 mg/ml, infarct at 48 h): effective
neurological deficits (neurological severity score) (tMCAo model in mice; 2 mg/ml): tendency of recovery
effect on time of recanalization by tPA [4]: did not affect the time of recanalization
